One experiment concerns the target T1, Protein skinhead-1 (Caenorhabditis elegans, UniProt P34707).
T1 sequence (P34707 whole entry): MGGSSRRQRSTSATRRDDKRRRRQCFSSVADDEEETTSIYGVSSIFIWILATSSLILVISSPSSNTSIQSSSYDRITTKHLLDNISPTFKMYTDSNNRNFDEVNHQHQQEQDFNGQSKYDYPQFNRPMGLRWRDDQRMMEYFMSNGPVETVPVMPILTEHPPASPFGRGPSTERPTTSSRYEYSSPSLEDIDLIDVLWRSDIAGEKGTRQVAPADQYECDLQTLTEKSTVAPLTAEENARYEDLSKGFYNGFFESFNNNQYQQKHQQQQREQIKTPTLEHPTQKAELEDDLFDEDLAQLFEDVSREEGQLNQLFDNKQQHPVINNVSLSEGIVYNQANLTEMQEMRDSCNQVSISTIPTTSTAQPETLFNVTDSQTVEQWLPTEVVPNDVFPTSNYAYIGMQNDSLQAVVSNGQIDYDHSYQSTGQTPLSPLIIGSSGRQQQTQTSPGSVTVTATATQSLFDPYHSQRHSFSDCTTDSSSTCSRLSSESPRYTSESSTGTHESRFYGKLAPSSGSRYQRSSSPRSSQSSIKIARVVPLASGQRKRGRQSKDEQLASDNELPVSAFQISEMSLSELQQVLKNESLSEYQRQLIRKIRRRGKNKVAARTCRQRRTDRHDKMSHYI
Format: functional.

Experiment [1] concerns the target Peroxisome proliferator-activated receptor gamma/Nuclear receptor coactivator 2 (Homo sapiens, UniProt P37231). Type of experiment: functional.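 Further: agonist potency for raising coactivator recruitment to the receptor.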
The target in experiment [2] is Peroxisome proliferator-activated receptor gamma/Nuclear receptor coactivator 1 (Homo sapiens, UniProt P37231). Format: functional.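 Further: agonist potency as compounds enhance coactivator SRC-1 recruitment to PPARgamma.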
The target in experiment [3] is Peroxisome proliferator-activated receptor gamma/Nuclear receptor coactivator 3 (Homo sapiens, UniProt P37231). Format: functional.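 Further: agonist potency for raising coactivator recruitment to the receptor.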
The nature of experiment [4]: growth suppression of PTEN-null colon cells, dose response, cell-based, HCT116 PTEN knockout (AID 1047).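 Further: HCT116 colon tumor cells with PTEN knocked out; cells exposed to compound for 60 hours before readout; potency for loss of cell viability measured by luminescence.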 Type of experiment: functional.
The nature of experiment [5]: growth suppression of beta-catenin-knockout colon cells, dose response, cell-based, HCT116, human colon tumor (AID 1045).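 Further: HCT116 colon tumor cells with beta catenin knocked out; cells exposed to compound for 60 hours.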 Type of experiment: functional.
In another experiment the test system is H9c2. Description: cells. Format: functional, cell-based. Conditions: Rattus norvegicus, H9c2, Myocardium.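 Further: confirmatory concentration-response retest of ultra-high-throughput screening hits for modulation of myocardial damage; cell death induced by hydrogen peroxide oxidative stress; compound pretreatment for 60 min then peroxide exposure for 2 h; potency is for protecting the cells against peroxide damage rather than for killing them.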
The target in experiment [6] is T2, Corticotropin-releasing factor receptor 2/Corticotropin-releasing factor-binding protein (Homo sapiens, UniProt P24387+Q13324).
T2 sequence (Q13324 whole entry): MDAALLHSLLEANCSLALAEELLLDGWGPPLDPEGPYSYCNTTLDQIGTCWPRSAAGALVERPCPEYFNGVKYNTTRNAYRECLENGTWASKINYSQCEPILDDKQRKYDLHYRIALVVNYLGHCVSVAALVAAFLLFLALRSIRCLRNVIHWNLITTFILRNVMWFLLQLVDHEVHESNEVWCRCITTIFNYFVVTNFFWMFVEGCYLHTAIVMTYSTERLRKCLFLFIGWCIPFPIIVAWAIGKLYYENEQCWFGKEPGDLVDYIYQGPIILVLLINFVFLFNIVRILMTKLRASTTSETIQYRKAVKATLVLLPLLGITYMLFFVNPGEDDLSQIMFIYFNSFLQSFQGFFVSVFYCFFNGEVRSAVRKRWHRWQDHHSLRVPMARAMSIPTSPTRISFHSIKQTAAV
T2 sequence (P24387 whole entry): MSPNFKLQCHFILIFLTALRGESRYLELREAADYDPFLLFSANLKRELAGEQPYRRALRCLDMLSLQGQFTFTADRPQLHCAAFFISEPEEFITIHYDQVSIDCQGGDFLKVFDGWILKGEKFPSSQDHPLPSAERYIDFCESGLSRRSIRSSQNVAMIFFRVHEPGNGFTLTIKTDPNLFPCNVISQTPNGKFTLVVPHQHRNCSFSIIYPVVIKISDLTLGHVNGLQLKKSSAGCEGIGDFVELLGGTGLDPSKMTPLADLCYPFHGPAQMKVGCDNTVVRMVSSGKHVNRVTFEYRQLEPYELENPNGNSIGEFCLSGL
Description: Dose Response confirmation of uHTS hits for small molecule antagonists of the CRF-binding protein and CRF-R2 receptor complex. The settings on record: read-out: IC50_Mean. Type of experiment: functional.

Experiment [7] deals with T2, Corticotropin-releasing factor receptor 2/Corticotropin-releasing factor-binding protein. Description: activators of CRF receptor 2 with binding protein – uHTS hits, confirmation (AID 602473). Conditions: read-out: EC50_Mean. Format: functional.

Calls of active or inactive are those of the source.

Chain of Peroxisome proliferator-activated receptor gamma/Nuclear receptor coactivator 3 (P37231 whole entry): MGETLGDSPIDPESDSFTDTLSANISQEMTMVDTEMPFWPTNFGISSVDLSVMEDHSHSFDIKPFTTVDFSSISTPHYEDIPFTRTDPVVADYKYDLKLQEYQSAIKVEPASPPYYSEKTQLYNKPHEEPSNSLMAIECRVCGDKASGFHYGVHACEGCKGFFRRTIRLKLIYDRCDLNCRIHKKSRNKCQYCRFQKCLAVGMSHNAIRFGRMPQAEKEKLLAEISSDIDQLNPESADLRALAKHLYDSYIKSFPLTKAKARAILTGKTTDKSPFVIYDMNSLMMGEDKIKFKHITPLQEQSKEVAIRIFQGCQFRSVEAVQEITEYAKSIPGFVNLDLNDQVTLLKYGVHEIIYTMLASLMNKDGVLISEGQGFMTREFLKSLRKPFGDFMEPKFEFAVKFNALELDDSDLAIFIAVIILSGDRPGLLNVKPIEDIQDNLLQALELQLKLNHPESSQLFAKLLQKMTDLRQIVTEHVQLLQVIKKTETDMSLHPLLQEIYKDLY
Chain of Peroxisome proliferator-activated receptor gamma/Nuclear receptor coactivator 3 (Q9Y6Q9 whole entry, further chain): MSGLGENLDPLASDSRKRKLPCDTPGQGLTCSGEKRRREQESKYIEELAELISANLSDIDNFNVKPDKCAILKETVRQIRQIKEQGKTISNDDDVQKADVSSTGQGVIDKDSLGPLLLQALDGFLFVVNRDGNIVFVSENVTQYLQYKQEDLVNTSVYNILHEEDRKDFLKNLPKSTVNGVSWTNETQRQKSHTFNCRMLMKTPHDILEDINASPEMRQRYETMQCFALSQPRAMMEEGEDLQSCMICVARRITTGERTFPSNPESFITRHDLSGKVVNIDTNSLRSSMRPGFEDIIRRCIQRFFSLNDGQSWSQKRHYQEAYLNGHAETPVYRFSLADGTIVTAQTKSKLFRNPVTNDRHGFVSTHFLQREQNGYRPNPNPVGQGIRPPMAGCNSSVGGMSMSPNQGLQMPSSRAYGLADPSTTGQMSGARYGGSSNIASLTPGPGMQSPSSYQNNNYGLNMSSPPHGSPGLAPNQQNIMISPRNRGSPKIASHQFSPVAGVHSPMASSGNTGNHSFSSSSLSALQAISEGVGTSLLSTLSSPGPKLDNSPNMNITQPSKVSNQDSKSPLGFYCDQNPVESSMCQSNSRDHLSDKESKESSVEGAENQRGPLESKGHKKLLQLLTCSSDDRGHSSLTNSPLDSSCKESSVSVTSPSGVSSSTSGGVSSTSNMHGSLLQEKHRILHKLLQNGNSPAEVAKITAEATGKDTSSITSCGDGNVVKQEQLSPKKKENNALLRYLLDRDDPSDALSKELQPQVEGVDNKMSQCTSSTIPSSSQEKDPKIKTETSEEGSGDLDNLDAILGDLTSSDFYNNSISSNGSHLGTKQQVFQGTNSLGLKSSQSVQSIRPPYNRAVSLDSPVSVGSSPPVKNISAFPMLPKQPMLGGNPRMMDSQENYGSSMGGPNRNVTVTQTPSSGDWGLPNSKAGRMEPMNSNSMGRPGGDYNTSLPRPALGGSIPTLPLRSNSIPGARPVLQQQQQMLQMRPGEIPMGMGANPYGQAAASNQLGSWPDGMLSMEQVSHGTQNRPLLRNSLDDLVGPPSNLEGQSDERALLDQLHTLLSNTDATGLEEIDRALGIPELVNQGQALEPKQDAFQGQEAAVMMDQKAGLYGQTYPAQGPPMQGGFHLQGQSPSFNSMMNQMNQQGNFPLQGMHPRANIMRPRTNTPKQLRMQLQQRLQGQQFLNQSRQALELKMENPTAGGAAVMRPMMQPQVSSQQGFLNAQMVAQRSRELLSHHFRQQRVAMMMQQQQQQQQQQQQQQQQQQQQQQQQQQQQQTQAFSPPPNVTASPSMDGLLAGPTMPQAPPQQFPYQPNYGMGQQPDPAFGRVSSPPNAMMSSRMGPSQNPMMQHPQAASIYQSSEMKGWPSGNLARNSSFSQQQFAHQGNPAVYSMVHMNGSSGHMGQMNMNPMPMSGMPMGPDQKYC
Chain of Peroxisome proliferator-activated receptor gamma/Nuclear receptor coactivator 2 (P37231 whole entry): as the sequence (P37231 whole entry) above
Chain of Peroxisome proliferator-activated receptor gamma/Nuclear receptor coactivator 2 (Q15596 whole entry, further chain): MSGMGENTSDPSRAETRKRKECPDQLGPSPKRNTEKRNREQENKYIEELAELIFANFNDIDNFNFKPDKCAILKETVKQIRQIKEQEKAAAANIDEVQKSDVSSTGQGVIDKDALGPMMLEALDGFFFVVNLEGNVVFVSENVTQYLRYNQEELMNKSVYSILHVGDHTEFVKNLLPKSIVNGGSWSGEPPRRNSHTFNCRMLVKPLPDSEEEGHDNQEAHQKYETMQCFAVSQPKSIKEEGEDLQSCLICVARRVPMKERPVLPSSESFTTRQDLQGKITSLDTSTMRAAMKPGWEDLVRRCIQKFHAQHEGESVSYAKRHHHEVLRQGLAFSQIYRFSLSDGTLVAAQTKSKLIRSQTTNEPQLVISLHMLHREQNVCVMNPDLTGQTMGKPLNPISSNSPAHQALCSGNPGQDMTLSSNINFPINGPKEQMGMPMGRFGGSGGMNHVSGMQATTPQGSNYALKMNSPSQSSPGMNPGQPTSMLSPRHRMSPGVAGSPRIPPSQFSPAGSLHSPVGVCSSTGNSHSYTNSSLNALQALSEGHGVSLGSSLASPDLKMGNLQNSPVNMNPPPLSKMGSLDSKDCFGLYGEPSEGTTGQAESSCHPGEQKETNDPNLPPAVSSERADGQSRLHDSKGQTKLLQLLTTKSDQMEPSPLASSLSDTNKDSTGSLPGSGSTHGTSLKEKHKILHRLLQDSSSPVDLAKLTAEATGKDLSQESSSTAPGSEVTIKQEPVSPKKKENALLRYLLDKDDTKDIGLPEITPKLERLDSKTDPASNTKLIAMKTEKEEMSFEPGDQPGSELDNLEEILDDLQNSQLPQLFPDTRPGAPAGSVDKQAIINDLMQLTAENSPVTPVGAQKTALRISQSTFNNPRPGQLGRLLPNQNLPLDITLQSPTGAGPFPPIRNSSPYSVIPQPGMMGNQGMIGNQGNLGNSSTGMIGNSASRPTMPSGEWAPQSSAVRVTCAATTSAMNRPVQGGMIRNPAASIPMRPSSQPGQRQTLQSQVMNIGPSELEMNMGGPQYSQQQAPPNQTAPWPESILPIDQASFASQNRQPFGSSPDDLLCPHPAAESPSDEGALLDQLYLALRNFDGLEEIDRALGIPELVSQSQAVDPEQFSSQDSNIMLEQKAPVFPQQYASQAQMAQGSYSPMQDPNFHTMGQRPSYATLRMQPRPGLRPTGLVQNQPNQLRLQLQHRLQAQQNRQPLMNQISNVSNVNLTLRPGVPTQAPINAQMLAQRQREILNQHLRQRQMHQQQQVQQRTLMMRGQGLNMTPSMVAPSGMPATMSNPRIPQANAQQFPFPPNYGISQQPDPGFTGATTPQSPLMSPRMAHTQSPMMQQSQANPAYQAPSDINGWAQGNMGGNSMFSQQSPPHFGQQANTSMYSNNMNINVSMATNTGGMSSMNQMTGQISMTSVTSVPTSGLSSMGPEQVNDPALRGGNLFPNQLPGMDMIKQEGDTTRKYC

With `CSc1ccc(Cl)c(C(=O)NCc2ccco2)c1`, the IC50 at Protein skinhead-1 is > 100 µM (inactive).
`CCN1CCCC1CNC(=O)c1cc2c(-c3ccc(Cl)cc3)nn(C)c2s1` (stereo not drawn): the EC50 was > 79.4 µM (not active) in experiment [1]; > 79.4 µM (not active) in experiment [2]; > 79.4 µM (not active) in experiment [3]; 5.98 µM (active) in experiment [4]; 5.02 µM (active) in [5].
As for `COC(=O)c1cnn(-c2nc3c(C)cccc3s2)c1C`, the figures for the EC50 in experiment [1], in experiment [2] and in [3] were 30 µM (not active), 54.5 µM (not active) and 67 µM (not active), respectively.
With `CCN(CC)CCn1c(NC(=O)c2ccc(Cl)cc2)nc2ccccc21`, the EC50 in experiment [1], in [2] and in experiment [3] was > 79.4 µM (not active) in each case. For the same compound, the IC50 in the experiment with H9c2 was > 79 µM (inactive).
For the compound `COc1ccccc1C(=O)Nc1ccc(Br)c2cccnc12`, on Protein skinhead-1, the IC50 is > 100 µM (inactive).
With `Cc1ccc(NS(=O)(=O)c2cccs2)cc1S(=O)(=O)N1CCCCCC1`, the EC50 in experiment [1] is > 79.4 µM (not active); in [2], > 79.4 µM (not active); in [3], > 79.4 µM (not active); in experiment [7], > 53 µM (inactive). Moreover, in experiment [6], the IC50 is > 47.1 µM (inactive).
Regarding `Cn1c(=O)n(C)c2cc(/C=C(/C#N)C(=O)NCc3ccco3)ccc21`, on Protein skinhead-1, the IC50 was > 100 µM (inactive).
Turning to `Cc1ccc(S(=O)(=O)NC(=O)COc2ccccc2)cc1`, the EC50 in [1], in [2] and in experiment [3] was > 79.4 µM (not active) throughout.
